Measurements published in patent publication US20060058299A1, “N-2s-4-3,4-difluorobenzyl morpholin-2yl methyl -2-(3-methylsulphonyl amino!phenyl acetamide as ccr3 antagonist for the treatment of inflammatory conditions” (priority 2002, published 2006).

Experiments:
CCR-3 = target: T1, CCR-3 (Homo sapiens, UniProt P51677); assay: CCR-3 competition binding SPA ([125I]eotaxin); conditions: membranes from K562 cells stably expressing CCR-3; 20 pM [125I]eotaxin; mean of at least two experiments; read-out: pIC50 (inhibition of [125I]eotaxin binding) (converted)
T1 construct: expressed in transfected cells; membranes)
T1 sequence (P51677 1-355): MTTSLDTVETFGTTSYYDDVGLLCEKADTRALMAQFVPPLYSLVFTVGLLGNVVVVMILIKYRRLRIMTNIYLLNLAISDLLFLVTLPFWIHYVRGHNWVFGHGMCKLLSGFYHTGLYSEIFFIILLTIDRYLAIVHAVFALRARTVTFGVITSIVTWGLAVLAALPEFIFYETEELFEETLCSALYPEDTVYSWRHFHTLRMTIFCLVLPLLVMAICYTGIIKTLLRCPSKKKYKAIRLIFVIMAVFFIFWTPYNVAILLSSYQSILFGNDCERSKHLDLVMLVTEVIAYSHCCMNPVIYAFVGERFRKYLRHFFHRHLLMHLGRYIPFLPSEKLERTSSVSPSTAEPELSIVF
Protocol: A CCR-3 competition binding SPA (scintillation proximity assay) was used to assess the affinity of novel compounds for CCR-3. Membranes prepared from K562 cells stably expressing CCR-3 (2.5 μg/well) were mixed with 0.25 mg/well wheat-germ agglutinin SPA beads (Amersham) and incubated in binding buffer (HEPES 50 mM, CaCl2 1 mM, MgCl2 5 mM, 0.5% BSA) at 4° C. for 1.5 hr. Following incubation, 20 pM of [^125I] eotaxin (Amersham) and increasing concentrations of compound (1 pM to 30 μM) were added and incubated in a 96 well plate for 2 hr at 22° C. then counted on a Microbeta plate counter. The total assay volume was 100 μl. Competition binding data were analysed by fitting the data with a four parameter logistic equation. Data are presented as the mean pIC50 values (negative logarithm of the concentration of compound which inhibits [^125I]eotaxin binding by 50%) from at least two experiments.

[1] = target: eosinophils purified from human peripheral blood; assay: Eosinophil chemotaxis assay (eotaxin-induced); type: cell-based; conditions: agonist eotaxin at EC80 concentration
Protocol: (b) Eosinophil Chemotaxis Assay.
The compound was evaluated for its inhibitory effect on eosinophil chemotaxis. Eosinophils were purified from human peripheral blood by standard CD16 cell depletion using a Miltenyi cell separation column and a magnetic Super Macs magnet as previously described (Motegi & Kita, 1998; J. Immunology. 161:4340-6). Cells were re-suspended in RPMI 1640/10% FCS solution and incubated with calcein-AM (Molecular Probes) at 37° C. for 30 mins. Following incubation, the eosinophils were centrifuged at 400 g for 5 min and re-suspended in RPMI/FCS at 2.2 million/ml. Cells were then incubated in the presence of increasing concentration of compounds (1 pM to 30 μM) at 37° C. for 30 mins. For control responses cells were incubated with RPMI/FCS only. The agonist eotaxin (an EC80 concentration) was added to the lower chamber of a 96 well chemotaxis plate (5 μm filter. Receptor Technologies). Eosinophils (50 μl of 2 million/ml cells) were added to the top chamber of the filter plate and incubated at 37° C. for 45 mins. Cells remaining on top of the chemotaxis filter were removed and the number of eosinophils which had migrated were quantified by reading the plate on a fluorescent plate reader. Inhibition curves for the effect of compounds on eosinophil chemotaxis were analysed by fitting the data with a four parameter logistic equation. […]

In the case of `CS(=O)(=O)Nc1cccc(CC(=O)NC[C@H]2CN(Cc3ccc(F)c(F)c3)CCO2)c1` [Example 1, N-{[(2S)-4-(3.4-difluorobenzyl)morpholin-2-yl]methyl}-2-{3-[(methylsulfonyl)amino]phenyl}acetamide], the IC50 (CCR-3) is reported as 10 nM and the “fpKi (functional pKi, eosinophil chemotaxis)” value [1] is reported as 8.4.
